Measured values from US20230322805A1, “NOVEL PYRIMIDODIAZEPINE DERIVATIVES OR USES THEREOF” (SPARK BIOPHARMA, INC., priority 2020, published 2023).

Tests used:
[1] = test system: tau (Tau5, phospho S199, T231) in BiFC-tau Venus HEK293 cells; test: Immunoblot of total tau and phospho-tau in HEK293 BiFC-tau cells; format: cell-based, human
Description: Cells were collected and lysed in modified radioimmunoprecipitation assay(RIPA) buffer 50 mM Tris-HCl, pH 7.8, […], 1% NP-40, 0.5% deoxycholate, 5 mM NaF, 2 mM Na3VO4, and 1× Protease Inhibitor Cocktail(Roche). The concentration of total protein in each lysate was then determined using a whole cell assay and Pierce BCA Protein Assay Kit (ThermoFisher Scientific). Centrifugation was performed at 200 g for 10 minutes at 4° C. for measurement. Equal amounts of each lysate were fractionated by PAGE, transferred to a PVDF membrane (Bio-Rad), and blocked with 2% bovine serum albumin (BSA, MP Biomedicals) in Tris Buffered Saline supplemented with Tween20 (TBST, Sigma) for 1 hour at room temperature.
Membranes were probed with protein-specific antibodies overnight at 4° C. The following day, membranes were washed three times in TBST and incubated with 2% BSA in TBST for 1 hour at room temperature with anti-rabbit or anti-mouse horseradish peroxidase secondary antibodies (Cell Signaling Technology). After washing, membranes were exposed to detection reagents (GE Healthcare) and quantified via chemiluminescence (Bio-Rad). […]

[2] = test system: SOD1 (G93A); test: Level of aggregation-prone mutant protein after treatment; format: cell-based; conditions: SB1617 treatment
From the text: (§1) Plasmids pRK5-EGFP-Tau (#46904) and pRK-EGFP-Tau P301 L (#46908) were purchased from Addgene. Plasmids pCMV-SOD1-EGFP and pCMV-SOD1 G93A-EGFP were provided by Seoul National University College of Medicine. Plasmids were transfected in HEK293T cells using Lipofectamine and Opti-MEM (Gibco) based on the manufacturer's instructions. Short interfering RNA duplex (siRNA duplex, BIONEER) for PDIA3 and DNAJC3 was used for PDIA3 and DNAJC3 knockdown experiments. siRNA oligonucleotides were transfected in HEK293 cells stably expressing BiFC-tau using Lipofectamine RNAiMAX (ThermoFisher Scientific) and Opti-MEM (Gibco) based on the manufacturer's instructions.
(§2) 5-6. From the results of Test Examples 5-1 to 5-5, it was hypothesized that if SB1617, a pyrimidiazepine derivative from this invention, regulates protein homeostasis, it will be able to effectively control the level of other proteins that tend to be folded and accumulated incorrectly under ER stress conditions. To confirm this, changes in the level of other aggregation-oriented proteins according to SB1617 treatment were confirmed.
(§3) Tau P301 L is found in FTD patients with Parkinson's disease and is known to accelerate tau aggregation and accumulation in the mouse brain. Htt-Q74 refers to a polyglutamine dilated mutation that causes Huntington's disease. The SOD1 (G93A) mutation level is one of the clinical characteristics of ALS patients.

[3] = test system: tau P301L; test: as above; format: cell-based; conditions: SB1617 treatment
From the text: as §1, §2, §3

CN(Cc1ccc(Cl)cc1)c1ncnc2c1[C@@H]1OC[C@H](CN2)N1S(=O)(=O)c1ccc([N+](=O)[O-])cc1 [Compound 117]
total tau level ([1]; 10 μM SB1617, 200 nM TG, pre-treated with 20 μg/mL cycloheximide, 8 hours): did not cause a significant change in tau level | effect on reduction of total tau level ([1]; SB1617 and TG with autophagy inhibitors 3-methyladenine and bafilomycin A1): is reduced, but does not completely diminish | total tau (Tau5) and phospho-tau (S199, T231) levels ([1]; with 80 nM thapsigargin for 20 hours): decreased all tau levels | mutation level of SOD (G93A) [2]: downregulated | mutation level of tau P301L [3]: downregulated
